Key:
[1] = Plasma concentrations of Ket and; format: in vivo, Wistar rat; details: after i.v. 20 mg/kg (R)-Ket, n = 3, ±SD
[2] = Brain tissue concentrations of Ket and; details: for ratio of brain tissue concentration: plasma concentration 10 min / Brain tissue concentration 10 min / ratio of brain tissue concentration: plasma concentration 20 min / Brain tissue concentration 20 min / ratio of brain tissue concentration: plasma concentration 60 min / Brain tissue concentration 60 min: after i.v. 20 mg/kg (R)-Ket; for Brain tissue concentration 10 min / Brain tissue concentration 20 min / Brain tissue concentration 60 min: n = 3, ±SD
[3] = Pharmacokinetic parameters for; format: in vivo, Wistar rat; details: metabolite after single i.v. 40 mg/kg (R,S)-Ket
[4] = target: α7-nicotinic acetylcholine receptor; details: ref Moaddel et al. [2013]; cited from earlier work
[5] = rat, ref Leung and Baillie ([1986]), cited from earlier work; for increased spontaneous locomotor activity: postanesthetic recovery phase
[6] = organic phase relative to aqueous phase; ref Leung and Baillie ([1986]); cited from earlier work
[7] = after i.v. (R,S)-Ket; ref Cohen et al. [1973]; cited from earlier work
Incubation of = format: in vitro ADME, Wistar rat; details: 0.1, 1 and 10 μmol/L; 1 mg/mL S9, NADPH; up to 120 min; data not shown

N[C@@]1(c2ccccc2Cl)CCC[C@H](O)C1=O [(2R,6S)-HNK]
Plasma concentration 10 min [1]: 0.222 ± 0.029 µg/mL | Plasma concentration 20 min [1]: 0.096 ± 0.006 µg/mL | Plasma concentration 60 min [1]: 0.035 ± 0.006 µg/mL | ratio of brain tissue concentration: plasma concentration 10 min [2]: (0.6) | Brain tissue concentration 10 min [2]: 141 ± 20 ng/g tissue | ratio of brain tissue concentration: plasma concentration 20 min [2]: (0.8) | Brain tissue concentration 20 min [2]: 78 ± 37 ng/g tissue | ratio of brain tissue concentration: plasma concentration 60 min [2]: (1.4) | Brain tissue concentration 60 min [2]: 48 ± 28 ng/g tissue | average ratio of brain tissue concentration to plasma concentration ([2]; after i.v. (S)-Ket or (R)-Ket, respectively, over the first 20 min post administration): ~1

N[C@@]1(c2ccccc2Cl)CCC[C@@H](O)C1=O [(2R,6R)-HNK, (2R,6R)-hydroxynorketamine]
Plasma concentration 10 min [1]: 0.345 ± 0.115 µg/mL | Plasma concentration 20 min [1]: 0.316 ± 0.058 µg/mL | Plasma concentration 60 min [1]: 0.2 ± 0.024 µg/mL | Brain tissue concentration 10 min [2]: 274 ± 47 ng/g tissue | Brain tissue concentration 20 min [2]: 191 ± 50 ng/g tissue | Brain tissue concentration 60 min [2]: 156 ± 34 ng/g tissue

N[C@@]1(c2ccccc2Cl)CCC[C@@H](O)C1=O [(2S,6S;2R,6R)-HNK, (2S,6S;2R,6R)-hydroxynorketamine]
t1/2 [3]: 9.5 ± 5.4 h | IC50 [4]: < 0.1 µM | increased spontaneous locomotor activity [5]: no effect | duration of anesthesia [5]: no effect | relative hydrophobicity from partition coefficients [6]: significantly less lipophilic

CNC1(c2ccccc2Cl)CCCCC1=O (racemic) [(R,S)-Ket, ketamine, reference compound]
increased spontaneous locomotor activity [5]: 25 min | duration of anesthesia [5]: 7 min | relative hydrophobicity from partition coefficients [6]: slightly more hydrophobic | time to peak brain tissue concentrations [7]: less than 1 min | Ket metabolites formed in incubates (Incubation of): did not contain any known Ket metabolites

NC1(c2ccccc2Cl)CCCCC1=O (racemic) [(R,S)-norKet, (R,S)-norketamine]
increased spontaneous locomotor activity [5]: 7 min | duration of anesthesia [5]: 3 min

CN[C@@]1(c2ccccc2Cl)CCCCC1=O [(R)-Ket, (R)-ketamine, reference compound]
Plasma concentration 10 min [1]: 3.43 ± 0.4 µg/mL | Plasma concentration 20 min [1]: 1.42 ± 0.103 µg/mL | Plasma concentration 60 min [1]: 0.498 ± 0.116 µg/mL | ratio of brain tissue concentration: plasma concentration 10 min [2]: (4.8) | Brain tissue concentration 10 min [2]: 16,365 ± 1931 ng/g tissue | ratio of brain tissue concentration: plasma concentration 20 min [2]: (6.1) | Brain tissue concentration 20 min [2]: 8715 ± 4433 ng/g tissue | ratio of brain tissue concentration: plasma concentration 60 min [2]: (10.5) | Brain tissue concentration 60 min [2]: 5224 ± 3391 ng/g tissue

NC1(c2ccccc2Cl)CCC=CC1=O (racemic) [(R,S)-DHNK, (R,S)-dehydronorketamine]
IC50 [4]: < 0.1 µM

Source: PMC4492732 (Pharmacology Research & Perspectives, 2015)
